Test results taken from patent US20220117938A1, “COMBINATON THERAPY WITH A DON PRODRUG AND AN IMMUNE CHECKPOINT INHIBITOR” (DRACEN PHARMACEUTICALS, INC., priority 2019, published 2022).
pIC50: −log10 of the molar value.

Test system: Ninety four (94) cell lines and PBMC
Assay: Cell viability assay, SRB staining, 94 cell lines and PBMC (Example 7, Experiment 2)
Type: cell-based
Description: Ninety four (94) cell lines were seeded at a density varying from 500 to 7000 cells/well depending on their growth characteristics. PBMC were seeded at the density 50,000-100,000 cells/well. Cells were incubated for 48 h prior to compound treatment. Compound 1 and DON were evaluated at a concertation range of 1 nM up to 100 μM. Compound 1 dilutions in DMSO and DON dilutions in PBS were performed in 96-well 0.5 mL plates (Greiner Bio-One, Germany). Compounds were then diluted 1:100 in RPMI medium. […] of cells were treated by mixing with 10 μL of the compound-containing media (resulting in a final DMSO concentration of 0.1%). The cells were allowed to grow at 37° C. for 120 h. Cells were fixed to the surface by addition of 10% TCA (for adherent growing cells) or 50% TCA (for semi-adherent growing cells or cells growing in suspension). After an hour of incubation at 4° C., plates were washed twice with 400 μL of deionized water and dried. Cells were then stained with 100 μL of 0.04% wt/v SRB. The plates were incubated at room temperature for at least 30 min and washed six times with 1% acetic acid to remove unbound stain. The plates were left to dry at room temperature and bound SRB was solubilized with 100 μL of 10 mM Tris base. Optical density was measured at 492, 520 and 560 nm using a Deelux-LED96 plate reader (Deelux Labortechnik GmbH, Germany).
Cell lines were purchased directly from the ATCC, NCI, CLS, and DSMZ cell line collections. A master bank and working aliquots were prepared. Cells used for the study had undergone less than 20 passages. To rule out potential contamination or wrong assignment, all cell lines were tested by STR analysis. Absence of mycoplasma contamination was confirmed for all cell lines used in the studies.
The cell lines were grown in the media recommended by the suppliers in the presence of 100 U/mL penicillin and 100 μg/mL streptomycin supplied with 10% FCS (PAA, Germany). RPMI 1640, DMEM, and MEM Earle's medium were from PAA (Coelbe, Germany), supplements 2 mM L-glutamine, 1 mM Na-pyruvate and 1% NEAA were from PAA (Coelbe, Germany), 2.5% horse serum, hydrocortisone, transferin, beta-estradiol, selenite and 1 U/mL insulin from Sigma-Aldrich (Munich, Germany). RPMI medium was used for culturing the following cell lines: 5637, 22RV1, 7860, A2780, A431, A549, ACHN, ASPC1, BT20, BXPC3, CAKI1, CLS439, COLO205, COLO678, DLD1, DU145, EFO21, EJ28, HCT15, HS578T, IGROV1, JAR, LOVO, MCF7, MDA MB231, MDA MB435, MDA MB436, MDA MB468, MHHES1, MT3, NCI H292, NCI H358M, NCI H460, NCIH82, OVCAR3, OVCAR4, PANC 1005 (addition of insulin), PBMC, PC3, RDES, SF268, SF295, SKBR3, SK MEL28, SKMEL5, SKOV3, SW620, U2OS, UMUC3, and U031.
DMEM medium was used to culture A204, A375, A673, C33A, CASKI, HCT116, HEPG2, HS729, HT29, J82, MG63, MIAPACA2 (addition of horse serum), PANC1, PLCPRF5, RD, SAOS2, SKLMS1, SKNAS, SNB75, T24, and TE671.
MEM Earle's medium was used for CACO2, CALU6, HEK293, HELA, HT1080, IMR90, JEG3, JIMT1, SKHEP1, SKNSH, and U87MG. Cell seeding conditions were optimized for each cell line. The cell seeding density varied from 500 to 7000 cells/well depending on their growth characteristics. Peripheral blood mononuclear cells (PBMC) were freshly isolated from whole blood of an anonymous donor through density gradient centrifugation using Ficoll solution (d=1.077). In short, blood was diluted 1:1 with PBS and carefully placed on the Ficoll. After centrifugation 1000×g for 15 min (braking rate 0), the ring containing mainly leucocytes was collected in PBS followed by three times washing with PBS to reduce the platelets. PBMC were seeded at the density 50,000-100,000 cells/well. Cells were grown in 5% CO2 atmosphere in a NB-203XXL incubator (N-BIOTEK Inc., Korea).
Ninety-four cell lines were tested in parallel. Cell growth and treatment were performed in 96 well microtitre plates CELLSTAR® (Greiner Bio-One, Germany). […]

[1] = Homo sapiens, MDA-MB-468, MDAMB468, breast
[2] = Homo sapiens, MG-63, MG63, bone
[3] = Homo sapiens, MHH-ES-1, MHHES1, bone
[4] = Homo sapiens, MIA PaCa-2, MIAPACA2, pancreas
[5] = Homo sapiens, MINO, hematological
[6] = Homo sapiens, MV4-11, MV4-11, hematological
[7] = Homo sapiens, NCI-H460, NCIH460, lung
[8] = Homo sapiens, OVCAR-3, OVCAR3, ovary
[9] = Homo sapiens, OVCAR-4, OVCAR4, ovary
[10] = Homo sapiens, PANC-1, PANC1, pancreas
[11] = Homo sapiens, PLC-PRF-5, PLCPRF5, liver
[12] = Homo sapiens, Panc1005, PANC1005, pancreas
[13] = Homo sapiens, SAOS-2, SAOS2, bone
[14] = Homo sapiens, SF-268, SF268, brain
[15] = Homo sapiens, SF-295, SF295, brain
[16] = Homo sapiens, SK-BR-3, SKBR3, breast
[17] = Homo sapiens, SK-HEP1, SKHEP1, liver
[18] = Homo sapiens, SK-LMS-1, SKLMS1, uterus
[19] = Homo sapiens, SK-MEL-5, SKMEL5, skin
[20] = Homo sapiens, SK-MEL-28, SKMEL28, skin
[21] = Homo sapiens, SK-N-AS, SKNAS, brain
[22] = Homo sapiens, SK-N-SH, SKNSH, brain
[23] = Homo sapiens, SK-OV-3, SKOV3, ovary
[24] = Homo sapiens, SNB-75, SNB75, brain
[25] = Homo sapiens, SU-DHL-6, SU-DHL-6, hematological
[26] = Homo sapiens, SW-620, SW620, colon
[27] = Homo sapiens, TE-671, TE671, muscle
[28] = Homo sapiens, THP-1, THP-1, hematological
[29] = Homo sapiens, U-87 MG, U87MG, brain
[30] = Homo sapiens, UMUC3, UMUC3, bladder
[31] = Homo sapiens, UO-31, UO31, kidney
[32] = Homo sapiens, WSU-NHL, hematological

## CC(=O)N[C@@H](Cc1c[nH]c2ccccc12)C(=O)N[C@@H](CCC(=O)C=[N+]=[N-])C(=O)OC(C)C [Compound 1, Isopropyl (S)-2-((S)-2-acetamido-3-(1H-indol-3-yl)propanamido)-6-diazo-5-oxohexanoate]
[1]
  GI50: 0.531 µM
  pIC50: 6.10
[2]
  GI50: 4.6 µM
  pIC50: 5.27
[3]
  GI50: 6.19 µM
  pIC50: 5.20
[4]
  GI50: 3.29 µM
  pIC50: 5.45
[5]
  GI50: 0.61 µM
  pIC50: 6.10
[6]
  GI50: 0.976 µM
  pIC50: 5.99
Homo sapiens, NCI-H292, NCIH292, lung
  GI50: 14.5 µM
[7]
  GI50: 4.74 µM
  pIC50: 5.30
[8]
  GI50: 1.65 µM
  pIC50: 5.39
[9]
  GI50: 0.812 µM
  pIC50: 5.78
[10]
  GI50: 7.98 µM
  pIC50: 5.07
[11]
  GI50: 6.15 µM
  pIC50: 5.13
[12]
  GI50: 14.8 µM
  pIC50: 4.54
Homo sapiens, Ramos, hematological
  GI50: 6.63 µM
[13]
  GI50: 2.8 µM
  pIC50: 4.68
[14]
  GI50: 7.37 µM
  pIC50: 5.02
[15]
  GI50: 9.73 µM
  pIC50: 4.96
[16]
  GI50: 2.65 µM
  pIC50: 5.41
[17]
  GI50: 3.93 µM
  pIC50: 5.29
[18]
  GI50: 1.34 µM
  pIC50: 5.67
[19]
  GI50: 2.05 µM
  pIC50: 5.54
[20]
  GI50: 1.23 µM
  pIC50: 5.79
[21]
  GI50: 7.62 µM
  pIC50: 4.73
[22]
  GI50: 8.18 µM
  pIC50: 5.04
[23]
  GI50: 1.26 µM
  pIC50: 5.42
[24]
  GI50: 18.4 µM
  pIC50: 4.40
Homo sapiens, SU-DHL10, SU-DHL-10, hematological
  GI50: 4.18 µM
[25]
  GI50: 0.971 µM
  pIC50: 5.95
[26]
  GI50: 7.96 µM
  pIC50: 5.07
[27]
  GI50: 5.44 µM
  pIC50: 5.22
[28]
  GI50: 1.99 µM
  pIC50: 5.65
Homo sapiens, U2OS, bone
  GI50: 10 µM
  pIC50: 4.89
[29]
  GI50: 2.38 µM
  pIC50: 5.39
[30]
  GI50: 2.32 µM
  pIC50: 5.56
[31]
  GI50: 17.7 µM
  pIC50: 4.35
[32]
  GI50: 1.16 µM
  pIC50: 5.82
J82, bladder
  pIC50: 4.80
JAR, placenta
  pIC50: 5.62
MT3, breast
  pIC50: 5.84
NCI-H358M, NCIH358M, lung
  GI50: 3.31 µM
  pIC50: 5.05
PBMC, 5637, bladder
  GI50: 2.15 µM
PBMC, CLS439, bladder
  GI50: 7.57 µM
PBMC, HS729, muscle
  GI50: 10.1 µM
PBMC, J82, bladder
  GI50: 14.2 µM
PBMC, JAR, placenta
  GI50: 2.23 µM
PBMC, MT3, breast
  GI50: 1.1 µM
PBMC, PC3, prostate
  GI50: 11.5 µM
PBMC, RD, muscle
  GI50: 4.05 µM
PBMC, T24, bladder
  GI50: 4.71 µM
PC3, prostate
  pIC50: 4.75
RD, muscle
  pIC50: 5.26
RD-ES, RDES, bone
  GI50: 3.95 µM
  pIC50: 5.26
T24, bladder
  pIC50: 5.31
